Columns and labels:
Assay in all cases: relative viability (nuclei count vs DMSO), 5 days (fraction); higher = more cells survive
[1] = compound: COc1cc2ncn(-c3cc(OCc4ccccc4C(F)(F)F)c(C(N)=O)s3)c2cc1OC + Cc1nc(NC(=O)N2CCC[C@H]2C(N)=O)sc1-c1ccnc(C(C)(C)C(F)(F)F)c1 [Alpelisib] (partner 2 µM)
In short: (§1)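 Nuclei were stained with Hoechst during a one-step fixation (final 0.05% Triton X-100, 1% formaldehyde, 1 ug/ml Hoechst) carried out 5 days after dosing, then counted on 4× images. The cells, lung cancer lines in 1536-well plates, had been dosed by pin tool the day after seeding with one drug alone or a fixed anchor-drug dose plus five library-drug doses (not always all listed) in √10 steps. Relative viability is the nuclei count in treated wells divided by that in vehicle wells, and each value is the median of duplicate plates.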

[2] = compound: COc1cc2ncn(-c3cc(OCc4ccccc4C(F)(F)F)c(C(N)=O)s3)c2cc1OC + O=C(c1cc(Cc2n[nH]c(=O)c3ccccc23)ccc1F)N1CCN(C(=O)C2CC2)CC1 [Olaparib] (partner 8 µM)
In short: as §1

[3] = compound: COc1cc2ncn(-c3cc(OCc4ccccc4C(F)(F)F)c(C(N)=O)s3)c2cc1OC + Nc1nc2[nH]cc(CCc3ccc(C(=O)N[C@@H](CCC(=O)O)C(=O)O)cc3)c2c(=O)[nH]1 [Pemetrexed] (partner 0.2 µM)
In short: as §1

[4] = compound: COc1cc2ncn(-c3cc(OCc4ccccc4C(F)(F)F)c(C(N)=O)s3)c2cc1OC + CC(C)C[C@H](NC(=O)[C@H](Cc1ccccc1)NC(=O)c1cnccn1)B(O)O [Bortezomib] (partner 0.002 µM)
In short: as §1

| Cell Line | relative viability ([1]; first compound 0.05 µM) | relative viability ([1]; first compound 0.1581 µM) | relative viability ([1]; first compound 0.5 µM) | relative viability ([1]; first compound 1.581 µM) | relative viability ([1]; first compound 5 µM) | relative viability ([2]; first compound 0.05 µM) | relative viability ([2]; first compound 0.1581 µM) | relative viability ([2]; first compound 0.5 µM) | relative viability ([2]; first compound 1.581 µM) | relative viability ([2]; first compound 5 µM) | relative viability ([3]; first compound 0.05 µM) | relative viability ([3]; first compound 0.1581 µM) | relative viability ([3]; first compound 0.5 µM) | relative viability ([3]; first compound 1.581 µM) | relative viability ([3]; first compound 5 µM) | relative viability ([4]; first compound 0.05 µM) | relative viability ([4]; first compound 0.1581 µM) | relative viability ([4]; first compound 0.5 µM) | relative viability ([4]; first compound 1.581 µM) | relative viability ([4]; first compound 5 µM) |
| --- | --- | --- | --- | --- | --- | --- | --- | --- | --- | --- | --- | --- | --- | --- | --- | --- | --- | --- | --- | --- |
| NCI-H838 | 1.25 | 1.02 | 0.956 | 0.36 | 0.142 | 0.491 | 0.679 | 0.365 | 0.0997 | 0.121 | 0.216 | 0.278 | 0.221 | 0.143 | 0.114 | 0.979 | 0.776 | 0.525 | 0.132 | 0.0869 |
| NCI-H1355 | 0.879 | 0.827 | 0.669 | 0.208 | 0.143 | 0.486 | 0.671 | 0.3 | 0.15 | 0.128 | 1.12 | 0.924 | 0.88 | 0.223 | 0.141 | 1.15 | 1.15 | 0.95 | 0.232 | 0.164 |
| NCI-H1437 | 1.11 | 0.959 | 0.187 | 0.12 | 0.0887 | 0.658 | 0.511 | 0.272 | 0.232 | 0.194 | 0.317 | 0.32 | 0.221 | 0.232 | 0.179 | 0.526 | 0.38 | 0.145 | 0.148 | 0.107 |
| NCI-H1651 | 0.98 | 0.95 | 0.777 | 0.111 | 0.0858 | 0.18 | 0.157 | 0.15 | 0.14 | 0.153 | 0.636 | 0.578 | 0.468 | 0.402 | 0.326 | 1.05 | 0.9 | 0.994 | 0.708 | 0.256 |
| NCI-H1666 | 1.22 | 0.834 | 0.493 | 0.29 | 0.292 | 0.79 | 0.786 | 0.622 | 0.56 | 0.466 | 0.827 | 0.83 | 0.651 | 0.52 | 0.447 | 0.899 | 0.801 | 0.489 | 0.28 | 0.299 |
| NCI-H1734 | 0.784 | 0.721 | 0.571 | 0.334 | 0.224 | 0.235 | 0.646 | 0.247 | 0.212 | 0.144 | 0.401 | 0.386 | 0.41 | 0.25 | 0.164 | 1.01 | 0.884 | 0.59 | 0.234 | 0.143 |
| NCI-H1755 | 0.945 | 0.953 | 0.716 | 0.352 | 0.262 | 0.816 | 0.827 | 0.714 | 0.447 | 0.319 | 0.43 | 0.434 | 0.426 | 0.299 | 0.286 | 0.958 | 0.965 | 0.843 | 0.355 | 0.278 |
| NCI-H1792 | 0.732 | 0.659 | 0.501 | 0.31 | 0.364 | 0.152 | 0.273 | 0.457 | 0.0375 | 0.0338 | 0.683 | 0.688 | 0.0781 | 0.0502 | 0.0387 | 0.958 | 0.91 | 0.88 | 0.423 | 0.223 |
| NCI-H1915 | 1.05 | 0.987 | 0.775 | 0.161 | 0.104 | 0.232 | 0.211 | 0.176 | 0.108 | 0.0766 | 0.478 | 0.489 | 0.37 | 0.137 | 0.0826 | 1.04 | 0.925 | 0.853 | 0.107 | 0.0772 |
| NCI-H1975 | 0.645 | 0.609 | 0.359 | 0.153 | 0.152 | 0.464 | 0.651 | 0.319 | 0.168 | 0.146 | 0.3 | 0.274 | 0.232 | 0.188 | 0.159 | 0.371 | 0.335 | 0.182 | 0.144 | 0.115 |
| NCI-H1993 | 0.662 | 0.674 | 0.605 | 0.519 | 0.517 | 0.952 | 1.14 | 0.742 | 0.535 | 0.462 | 0.513 | 0.616 | 0.41 | 0.421 | 0.448 | 1.09 | 1.13 | 0.874 | 0.618 | 0.516 |
| NCI-H2009 | 1.07 | 1.05 | 0.667 | 0.169 | 0.154 | 0.604 | 0.623 | 0.171 | 0.107 | 0.0932 | 0.983 | 0.884 | 0.43 | 0.218 | 0.26 | 0.965 | 0.831 | 0.289 | 0.149 | 0.113 |
| NCI-H2023 | 0.547 | 0.634 | 0.61 | 0.0955 | 0.0801 | 0.416 | 0.392 | 0.16 | 0.0751 | 0.0692 | 0.202 | 0.2 | 0.177 | 0.107 | 0.114 | 0.998 | 1.24 | 0.403 | 0.0876 | 0.0864 |
| NCI-H2085 | 1.01 | 0.959 | 0.75 | 0.4 | 0.386 | 0.658 | 0.721 | 0.481 | 0.367 | 0.306 | 0.85 | 0.831 | 0.719 | 0.33 | 0.292 | 0.968 | 1.11 | 0.796 | 0.529 | 0.362 |
| NCI-H2087 | 1.18 | 0.953 | 0.311 | 0.169 | 0.142 | 0.432 | 0.493 | 0.346 | 0.098 | 0.0728 | 0.617 | 0.684 | 0.414 | 0.11 | 0.106 | 0.768 | 0.782 | 0.484 | 0.167 | 0.131 |
| NCI-H2126 | 0.731 | 0.803 | 0.668 | 0.293 | 0.234 | 0.813 | 0.86 | 0.449 | 0.238 | 0.241 | 0.75 | 0.655 | 0.498 | 0.288 | 0.251 | 1.16 | 1.16 | 1.03 | 0.398 | 0.314 |
| NCI-H2228 | 0.612 | 0.866 | 0.186 | 0.187 | 0.272 | 0.224 | 0.721 | 0.201 | 0.157 | 0.194 | 0.329 | 0.352 | 0.265 | 0.153 | 0.238 | 1.01 | 0.849 | 0.208 | 0.182 | 0.18 |
| NCI-H2347 | 0.896 | 0.92 | 0.813 | 0.581 | 0.735 | 0.491 | 0.569 | 0.504 | 0.513 | 0.471 | 0.455 | 0.434 | 0.403 | 0.364 | 0.33 | 1.1 | 0.861 | 0.543 | 0.372 | 0.479 |
| NCI-H2405 | 0.788 | 0.634 | 0.402 | 0.401 | 0.38 | 0.795 | 0.809 | 0.326 | 0.312 | 0.331 | 1.12 | 1.01 | 0.399 | 0.377 | 0.367 | 1.02 | 0.492 | 0.835 | 0.401 | 0.557 |
| NCI-H3122 | 0.842 | 0.514 | 0.203 | 0.149 | 0.197 | 0.682 | 0.585 | 0.149 | 0.141 | 0.146 | 0.21 | 0.196 | 0.16 | 0.124 | 0.11 | 1.05 | 0.951 | 0.709 | 0.183 | 0.227 |
| PC-3 [JPC-3] | 0.983 | 0.98 | 0.707 | 0.307 | 0.318 | 0.955 | 1.01 | 0.588 | 0.424 | 0.316 | 1.31 | 1.1 | 0.611 | 0.28 | 0.254 | 0.863 | 0.803 | 0.775 | 0.285 | 0.231 |
| PC-14 | 0.833 | 0.944 | 0.768 | 0.0614 | 0.135 | 0.216 | 0.246 | 0.0786 | 0.0384 | 0.0696 | 0.132 | 0.148 | 0.126 | 0.048 | 0.0388 | 0.723 | 0.794 | 0.404 | 0.0771 | 0.0641 |
| RERF-LC-KJ | 0.859 | 0.849 | 0.515 | 0.294 | 0.622 | 0.937 | 0.945 | 0.24 | 0.233 | 0.253 | 0.472 | 0.487 | 0.439 | 0.299 | 0.346 | 1.14 | 1.12 | 0.67 | 0.357 | 0.558 |
| SK-LU-1 | 1.02 | 0.778 | 0.276 | 0.291 | 0.306 | 0.39 | 0.372 | 0.272 | 0.197 | 0.207 | 0.7 | 0.886 | 0.351 | 0.298 | 0.272 | 1.35 | 1.14 | 0.745 | 0.292 | 0.256 |
| SW 1573 | 0.828 | 0.669 | 0.629 | 0.326 | 0.182 | 0.442 | 0.428 | 0.188 | 0.103 | 0.119 | 0.839 | 0.742 | 0.594 | 0.149 | 0.136 | 0.975 | 1.2 | 0.867 | 0.157 | 0.565 |
| UMC-11 | 0.872 | 0.928 | 0.128 | 0.106 | 0.101 | 0.313 | 0.293 | 0.21 | 0.185 | 0.159 | 0.619 | 0.599 | 0.201 | 0.191 | 0.201 | 0.634 | 0.596 | 0.119 | 0.131 | 0.0891 |

Reference: the supplement of paper PMC10307832
